Test results: PubChem BioAssay (NCI)
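Growth conditions: 96-well plates. Treatment: test compound, 48 hours, 5 concentrations. Analysis: linear interpolation between bracketing concentrations; unreached endpoints set to highest concentration. TGI: concentration producing complete growth inhibition.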

Columns and labels:
Experiment in all cases: NCI-60 cell line screen, 48 h
SR leukemia = tested on: SR leukemia
SK-MEL-28 melanoma = tested on: SK-MEL-28 melanoma
HCT-116 colon = tested on: HCT-116 colon
UACC-62 melanoma = tested on: UACC-62 melanoma
SF-539 CNS = tested on: SF-539 CNS
COLO 205 colon = tested on: COLO 205 colon
T-47D breast = tested on: T-47D breast
MDA-N = tested on: MDA-N
SW-620 colon = tested on: SW-620 colon
NCI-H460 lung = tested on: NCI-H460 lung
OVCAR-4 ovarian = tested on: OVCAR-4 ovarian

| SMILES | TGI (SR leukemia) [µM] | TGI (SK-MEL-28 melanoma) [µM] | TGI (HCT-116 colon) [µM] | TGI (UACC-62 melanoma) [µM] | TGI (SF-539 CNS) [µM] | TGI (COLO 205 colon) [µM] | TGI (T-47D breast) [µM] | TGI (MDA-N) [µM] | TGI (SW-620 colon) [µM] | TGI (NCI-H460 lung) [µM] | TGI (OVCAR-4 ovarian) [µM] |
| --- | --- | --- | --- | --- | --- | --- | --- | --- | --- | --- | --- |
| COc1cc(C(=O)/C=C/c2ccc(OCCSCCCCCCCCCCSCCOc3ccc(/C=C/C(=O)c4cc(OC)c(OC)c(OC)c4)cc3)cc2)cc(OC)c1OC | > 100 | > 100 | > 100 | > 100 | > 100 | > 100 | > 100 | > 100 | > 100 | – | – |
| O=P1(Oc2ccccc2)N=P(c2ccccc2)(c2ccccc2)C=C(c2ccc(Cl)cc2)N1 (stereo unspecified) | 21.5 | – | 30.5 | 27.5 | 28.9 | 17.1 | 24.7 | 22.8 | 29.5 | 18.5 | – |
| Oc1cc(O)c2ccc(-c3ccc(O)c(O)c3)[o+]c2c1 | – | > 100 | > 100 | > 100 | > 100 | – | – | > 100 | > 100 | > 100 | > 100 |
| C=CCc1[nH]c2c(OCc3ccccc3)cc(N(CC=C)C(C)=O)cc2c1C | – | 33.5 | 24.8 | 26.9 | 32 | 30.1 | 26.4 | 27.9 | 32.2 | 27.9 | 23.6 |
| Cc1ccc2c(=O)cc(Cc3cccs3)[nH]c2n1 | – | > 100 | > 100 | > 100 | – | > 100 | > 100 | – | > 100 | – | > 100 |
| Cc1ccc(S(=O)(=O)CN2C(=O)C(c3ccccc3)(c3ccccc3)C23OC(c2ccc(Cl)cc2)=CC3=O)cc1 (stereo unspecified) | – | > 10 | > 10 | > 10 | > 10 | > 10 | > 10 | > 10 | > 10 | > 10 | > 10 |
| C=C1CCCC2[C@](C)(CC3=C(Cl)C(=O)C=C(OC)C3=O)C(C)CC[C@]12C (stereo partly specified) | 13.6 | 17 | 6.43 | 12.7 | 9.06 | 9.76 | – | 13.7 | 10.4 | 19.4 | 14.2 |
| C=CCNC(=S)N=Nc1c(O)n(CN2CCOCC2)c2ccc([N+](=O)[O-])cc12 | – | > 100 | > 100 | > 100 | > 100 | > 100 | 95.1 | > 100 | > 100 | > 100 | > 100 |
| Cc1c(C)c(C)c(CC2(C)CSC2)c(CC2(C)CSC2)c1C | > 100 | > 100 | > 100 | > 100 | > 100 | > 100 | > 100 | > 100 | > 100 | > 100 | – |
| Cc1[nH]c(=O)nc2c1C(NCCCN(C)C)c1cc(Cl)ccc1N2 (stereo unspecified) | 27.3 | 27.2 | 28.5 | 26.2 | 26.3 | 26 | – | – | 28.6 | 29 | – |
| Nc1ccc2nc3c(nc2c1)C(=O)c1ccccc1-3 | – | > 100 | > 100 | > 100 | > 100 | > 100 | > 100 | > 100 | > 100 | > 100 | > 100 |
| CCCC(=O)NC(Nc1cc(C)ccn1)(C(=O)OCC)C(F)(F)F (stereo unspecified) | > 100 | > 100 | > 100 | > 100 | > 100 | > 100 | > 100 | > 100 | > 100 | – | > 100 |
| CC(=O)OC(CN1CCN(c2ccccn2)CC1)Cn1sc2nc(C)cc(C)c2c1=O (stereo unspecified) | > 100 | 42.2 | 30.5 | 30 | 29.2 | 31.2 | 76.8 | – | > 100 | 35.2 | 55.4 |
| O=C(c1cc2ccccc2[nH]1)N1C2CCC1CN(CCOC(c1ccc(F)cc1)c1ccc(F)cc1)CC2 (stereo unspecified) | – | > 100 | > 100 | > 100 | > 100 | > 100 | > 100 | > 100 | > 100 | > 100 | > 100 |
| NC(CSCc1ccc(I)cc1)C(=O)O (stereo unspecified) | – | > 100 | > 100 | > 100 | – | > 100 | > 100 | > 100 | > 100 | > 100 | > 100 |
| Oc1ccc2c(c1)CCc1c-2n(CCN2CCOCC2)c2ccc(O)cc12 | > 100 | > 100 | > 100 | 55.5 | > 100 | > 100 | > 100 | > 100 | > 100 | > 100 | – |
| COc1cc2nc(Nc3cccc(Br)c3)nc(Nc3cccc(Br)c3)c2cc1OC | – | 33.5 | 31.4 | 32.8 | – | 27.7 | 43.7 | 32.8 | 45.8 | 51.8 | 30.9 |
| c1ccc2c(CN3CCN(Cc4c[nH]c5ccccc45)CC3)c[nH]c2c1 | 44.8 | 36.9 | 28.6 | 29.9 | – | 20.8 | 39.1 | 29.1 | 93.9 | 25.3 | > 100 |
| Cc1cc(O)c2c(c1O)C(=O)c1cccc(O)c1C2=O | – | > 100 | > 100 | > 100 | > 100 | – | > 100 | > 100 | > 100 | > 100 | > 100 |
| CCOc1ccc(N/C(=C(/C(Cl)=C(/Cl)Nc2ccccc2)[N+](=O)[O-])n2nnc3ccccc32)cc1 | – | 54.5 | 56 | 43.5 | – | 50.6 | > 100 | 40.3 | – | > 100 | > 100 |
| CN(C)CCNc1nc2ccccc2c2c1CCCC2 | – | 39.6 | 30.2 | 31.1 | > 100 | > 100 | 40.4 | 33.9 | 86 | 31 | > 100 |
| COc1ccc(NC(=S)N/N=C\c2ccc(NC(C)=O)cc2)cc1 | > 100 | > 100 | > 100 | > 100 | – | > 100 | > 100 | > 100 | > 100 | > 100 | > 100 |
